According to patent publication US10280145B2 (Toray Industries, Inc., priority 2015, dated 2019):

Biological target: T1, intracellular domain of DDR1 (Homo sapiens, UniProt Q08345)
T1 construct: the intracellular domain of DDR1 (in a final concentration of 5 ng/μL) (Carna Biosciences, Inc.); purchased Carna Biosciences, Inc
Test: Evaluation of DDR1 inhibition activity with HTRF KinEASE-TK kit
Assay type: biochemical
Settings: DDR1 intracellular domain 5 ng/μL, ATP 25 μm/L, TK Substrate-biotin 1000 nmol/L, room temperature, one hour
Method: The DDR1 inhibition activity in the compounds of Examples 1 to 80 was evaluated with HTRF® KinEASE-TK kit (Cisbio Bioassays).
Each test substance was dissolved in dimethyl sulfoxide and then used for the evaluation as described below. Moreover, each of test substances and reagents was diluted in the kinase buffer (Cisbio Bioassays) prepared by adding thereto MgCl2, MnCl2, DTT, and the Supplemental Enzyme buffer (Cisbio Bioassays) to concentrations of 5 mmol/L, 0.5 mmol/L, 0.25 mmol/L, and 50 nmol/L, respectively, and then used. Each test substance (in DMSO in a final concentration of 1%), the intracellular domain of DDR1 (in a final concentration of 5 ng/μL) (Carna Biosciences, Inc.), the phosphate donor ATP (in final concentration of 25 μm/L) (Sigma), and the substrate TK Substrate-biotin (in a final concentration of 1000 nmol/L) (Cisbio Bioassays) were added to a 384-well black plate (Corning) and allowed to react at room temperature for one hour. After completion of the reaction, the TK Antibody-Cryptate (Cisbio Bioassays) and the Streptavidin-XL665 (Cisbio Bioassays) were added thereto and allowed to react at room temperature for one hour. In addition, the plate was provided with a well to which a test substance was not added, and with a well to which a test substance and the intracellular domain of DDR1 were […].
The fluorescence intensity in each well was measured using a multi-label counter (Envision, PerkinElmer; excitation wavelength: 320 nm, measurement wavelength: 665 nm and 620 nm) to calculate a ratio (the fluorescence intensity at 665 nm/the fluorescence intensity at 620 nm). The inhibition rate (%) of a test substance at each concentration was calculated based on the formula below: Inhibition rate (%)=([the ratio obtained from the well containing no test substance]−[the ratio from a well containing a test substance])/([the ratio obtained from the well containing no test substance]−[the ratio obtained from the well containing no intracellular domain of DDR1 and no test substance])×100.
The calculated inhibition rates were fitted to a sigmoidal dose-response curve by regression analysis using the Prism 5.04 (GraphPad Software, Inc.) to calculate the IC50 value of the test substance.

T1 sequence (Q08345 439-913 limits assumed): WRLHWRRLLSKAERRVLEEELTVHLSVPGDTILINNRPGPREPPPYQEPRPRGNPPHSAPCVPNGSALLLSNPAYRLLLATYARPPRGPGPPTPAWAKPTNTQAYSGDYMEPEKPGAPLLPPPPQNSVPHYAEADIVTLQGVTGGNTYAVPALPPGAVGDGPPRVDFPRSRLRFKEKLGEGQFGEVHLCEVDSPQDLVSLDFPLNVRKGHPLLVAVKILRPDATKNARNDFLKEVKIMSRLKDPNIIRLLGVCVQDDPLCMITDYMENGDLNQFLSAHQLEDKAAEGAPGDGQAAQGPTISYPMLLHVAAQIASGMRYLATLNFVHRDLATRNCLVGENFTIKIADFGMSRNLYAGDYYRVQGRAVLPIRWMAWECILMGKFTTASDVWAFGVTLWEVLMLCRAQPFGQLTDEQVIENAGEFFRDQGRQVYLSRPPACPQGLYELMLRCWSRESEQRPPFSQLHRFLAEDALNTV

| Compound | IC50 |
| --- | --- |
| COc1ccc(OC(F)(F)F)cc1NC(=O)N[C@H]1CC[C@H](Oc2ccnc(N3CCOCC3)n2)CC1 [Example 1, 1-(2-methoxy-5-(trifluoromethoxy)phenyl)-3-(trans-4-((2-morpholinopyrimidin-4-yl)oxy)cyclohexyl)urea] | 476 nM |
| COc1ccc(OC(F)(F)F)cc1NC(=O)N[C@H]1CC[C@H](Oc2ccncn2)CC1 [Example 2, 1-(2-methoxy-5-(trifluoromethoxy)phenyl)-3-(trans-4-(pyrimidin-4-yloxy)cyclohexyl)urea] | 229 nM |
| COc1ccc(S(F)(F)(F)(F)F)cc1NC(=O)N[C@H]1CC[C@H](Oc2ccnc(N3CCOCC3)n2)CC1 [Example 4, 1-(2-methoxy-5-(pentafluorosulfanyl)phenyl)-3-(trans-4-((2-morpholinopyrimidin-4-yl)oxy)cyclohexyl)urea] | 427 nM |
| COc1ccc(OC(F)(F)F)cc1NC(=O)N[C@H]1CC[C@H](Oc2ncccn2)CC1 [Example 9, 1-(2-methoxy-5-(trifluoromethoxy)phenyl)-3-(trans-4-(pyrimidin-2-yloxy)cyclohexyl)urea] | 349 nM |
| COc1ccc(S(F)(F)(F)(F)F)cc1NC(=O)N[C@H]1CC[C@H](Oc2ncccn2)CC1 [Example 10, 1-(2-methoxy-5-(pentafluorosulfanyl)phenyl)-3-(trans-4-(pyrimidin-2-yloxy)cyclohexyl)urea] | 167 nM |
| COc1ccc(C(F)(F)F)cc1NC(=O)N[C@H]1CC[C@H](Oc2ncccn2)CC1 [Example 11, 1-(2-methoxy-5-(trifluoromethyl)phenyl)-3-(trans-4-(pyrimidin-2-yloxy)cyclohexyl)urea] | 384 nM |
| COc1ccc(OC(F)(F)F)cc1NC(=O)N[C@H]1CC[C@H](Oc2ccc(-c3ccccc3)nn2)CC1 [Example 16] | 963 nM |
| COc1c(CO)cc(C(F)(F)F)cc1NC(=O)N[C@H]1CC[C@H](Oc2ccc(-c3ccccc3)nn2)CC1 [Example 17, 1-(3-(hydroxymethyl)-2-methoxy-5-(trifluoromethyl)phenyl)-3-(4-((6-phenylpyridazin-3-yl)oxy)cyclohexyl)urea] | 189 nM |
| COc1ccc(OC(F)(F)F)cc1NC(=O)N[C@H]1CC[C@H](Oc2cccnc2)CC1 [Example 18, 1-(2-methoxy-5-(trifluoromethoxy)phenyl)-3-(trans-4-(pyridin-3-yloxy)cyclohexyl)urea] | 162 nM |
| O=C(Nc1cccc(C(F)(F)F)c1)N[C@H]1CC[C@H](OCc2ccncc2)CC1 [Example 22, 1-(trans-4-(pyridin-4-ylmethoxy)cyclohexyl)-3-(3-(trifluoromethyl)phenyl)urea] | 234 nM |
| O=C(Nc1ccc(CO)c(C(F)(F)F)c1)N[C@H]1CC[C@H](OCc2ccncc2)CC1 [Example 23, 1-(4-(hydroxymethyl)-3-(trifluoromethyl)phenyl)-3-(trans-4-(pyridin-4-ylmethoxy)cyclohexyl)urea] | 402 nM |
| Cc1ccc(C(F)(F)F)cc1NC(=O)N[C@H]1CC[C@H](OCc2ccncc2)CC1 [Example 25, 1-(2-methyl-5-(trifluoromethyl)phenyl)-3-(trans-4-(pyridin-4-ylmethoxy)cyclohexyl)urea] | 421 nM |
| O=C(Nc1cc(C(F)(F)F)ccc1F)N[C@H]1CC[C@H](OCc2ccncc2)CC1 [Example 27, 1-(2-fluoro-5-(trifluoromethyl)phenyl)-3-(trans-4-(pyridin-4-ylmethoxy)cyclohexyl)urea] | 258 nM |

Stronger by IC50, values ahead:

| IC50 | Compound |
| --- | --- |
| 141 nM | CNc1nccc(O[C@H]2CC[C@H](NC(=O)Nc3cc(OC(F)(F)F)ccc3OC)CC2)n1 [Example 3, 1-(2-methoxy-5-(trifluoromethoxy)phenyl)-3-(trans-4-((2-(methylamino)pyrimidin-4-yl)oxy)cyclohexyl)urea] |
| 133 nM | O=C(Nc1cc(C(F)(F)F)ccc1Cl)N[C@H]1CC[C@H](OCc2ccncc2)CC1 [Example 29, 1-(2-chloro-5-(trifluoromethyl)phenyl)-3-(trans-4-(pyridin-4-ylmethoxy)cyclohexyl)urea] |
| 124 nM | COc1ccc(C(F)(F)F)cc1NC(=O)N[C@H]1CC[C@H](OCc2ccncc2)CC1 [Example 24, 1-(2-methoxy-5-(trifluoromethyl)phenyl)-3-(trans-4-(pyridin-4-ylmethoxy)cyclohexyl)urea] |
| 114 nM | O=C(Nc1cc(CO)cc(C(F)(F)F)c1)N[C@H]1CC[C@H](OCc2ccncc2)CC1 [Example 20, 1-(3-(hydroxymethyl)-5-(trifluoromethyl)phenyl)-3-(trans-4-(pyridin-4-ylmethoxy)cyclohexyl)urea] |
| 111 nM | O=C(Nc1cc(C(F)(F)F)ccc1OC1COC1)N[C@H]1CC[C@H](Oc2ccnc(N3CCOCC3)n2)CC1 [Example 7, 1-(trans-4-((2-morpholinopyrimidin-4-yl)oxy)cyclohexyl)-3-(2-(oxetan-3-yloxy)-5-(trifluoromethyl)phenyl)urea] |
| 103 nM | O=C(Nc1cc(C(F)(F)F)ccc1N1CCOCC1)N[C@H]1CC[C@H](OCc2ccncc2)CC1 [Example 28, 1-(2-morpholino-5-(trifluoromethyl)phenyl)-3-(trans-4-(pyridin-4-ylmethoxy)cyclohexyl)urea] |
| 96.7 nM | COc1c(CO)cc(C(F)(F)F)cc1NC(=O)N[C@H]1CC[C@H](Oc2ncccn2)CC1 [Example 12, 1-(3-(hydroxymethyl)-2-methoxy-5-(trifluoromethyl)phenyl)-3-(trans-4-(pyrimidin-2-yloxy)cyclohexyl)urea] |
| 82.7 nM | COc1ccc(S(F)(F)(F)(F)F)cc1NC(=O)N[C@H]1CC[C@H](OCc2ccncc2)CC1 [Example 26, 1-(2-methoxy-5-(pentafluorosulfanyl)phenyl)-3-(trans-4-(pyridin-4-ylmethoxy)cyclohexyl)urea] |
| 76.7 nM | O=C(Nc1cc(S(F)(F)(F)(F)F)ccc1OC1COC1)N[C@H]1CC[C@H](Oc2ncccn2)CC1 [Example 14, 1-(2-(oxetan-3-yloxy)-5-(pentafluorosulfanyl)phenyl)-3-(trans-4-(pyrimidin-2-yloxy)cyclohexyl)urea] |
| 76.7 nM | O=C(Nc1cc(C(F)(F)F)ccc1OC1CNC1)N[C@H]1CC[C@H](OCc2ccncc2)CC1 [Example 31, 1-(2-(azetidin-3-yloxy)-5-(trifluoromethyl)phenyl)-3-(trans-4-(pyridin-4-ylmethoxy)cyclohexyl)urea] |
| 72.4 nM | O=C1CN(c2ccc(C(F)(F)F)cc2NC(=O)N[C@H]2CC[C@H](Oc3ncccn3)CC2)CCN1 [Example 15, 1-(2-(3-oxopiperazin-1-yl)-5-(trifluoromethyl)phenyl)-3-(trans-4-(pyrimidin-2-yloxy)cyclohexyl)urea] |
| 65.9 nM | COc1c(CO)cc(S(F)(F)(F)(F)F)cc1NC(=O)N[C@H]1CC[C@H](Oc2ccnc(N3CCOCC3)n2)CC1 [Example 5, 1-(3-(hydroxymethyl)-2-methoxy-5-(pentafluorosulfanyl)phenyl)-3-(trans-4-((2-morpholinopyrimidin-4-yl)oxy)cyclohexyl)urea] |
| 62.2 nM | COc1c(CO)cc(C(F)(F)F)cc1NC(=O)N[C@H]1CC[C@H](Oc2ccnc(N3CCOCC3)n2)CC1 [Example 6, 1-(3-(hydroxymethyl)-2-methoxy-5-(trifluoromethyl)phenyl)-3-(trans-4-((2-morpholinopyrimidin-4-yl)oxy)cyclohexyl)urea] |
| 57.6 nM | O=C(Nc1cc(C(F)(F)F)ccc1OC1COC1)N[C@H]1CC[C@H](Oc2ncccn2)CC1 [Example 13, 1-(2-(oxetan-3-yloxy)-5-(trifluoromethyl)phenyl)-3-(trans-4-(pyrimidin-2-yloxy)cyclohexyl)urea] |
| 50.4 nM | 1-(2-(oxetan-3-yloxy)-5-(trifluoromethoxy)phenyl)-3-(trans-4-(pyridin-4-ylmethoxy)cyclohexyl)urea [Example 30] |
| 46.3 nM | O=C1CN(c2ccc(C(F)(F)F)cc2NC(=O)N[C@H]2CC[C@H](Oc3ccnc(N4CCOCC4)n3)CC2)CCN1 [Example 8, 1-(trans-4-((2-morpholinopyrimidin-4-yl)oxy)cyclohexyl)-3-(2-(3-oxopiperazin-1-yl)-5-(trifluoromethyl)phenyl)urea] |
| 46.2 nM | COc1ccc(OC(F)(F)F)cc1NC(=O)N[C@H]1CC[C@H](OCc2ccncc2)CC1 [Example 19, 1-(2-methoxy-5-(trifluoromethoxy)phenyl)-3-(trans-4-(pyridin-4-ylmethoxy)cyclohexyl)urea] |
| 39.3 nM | COc1c(CO)cc(C(F)(F)F)cc1NC(=O)N[C@H]1CC[C@H](OCc2ccncc2)CC1 [Example 21, 1-(3-(hydroxymethyl)-2-methoxy-5-(trifluoromethyl)phenyl)-3-(trans-4-(pyridin-4-ylmethoxy)cyclohexyl)urea] |
